Reference: the NIST ThermoML archive (doi:10.1021/je900262t)

How the values were obtained:
[1] = Liquid; for mass density: 303.15 K, 101.33 kPa, Pycnometric method; for vapor or sublimation pressure: Ebulliometric method (Recirculating still)
[2] = excess molar enthalpy (molar enthalpy of mixing); xn = mol fraction of the nth substance listed; settings: 298.15 K, 101 kPa, Liquid

CN1CCCC1=O [N-methylpyrrolidone]
Settings	mass density [kg/m3]
[1]	1023.4

Settings	vapor or sublimation pressure [kPa]
[1], 473.25 K	95.3

CC(=O)CC(C)C [4-methylpentan-2-one]
Settings	mass density [kg/m3]
[1]	796.33

Settings	vapor or sublimation pressure [kPa]
[1], 386.65 K	95.3

O=C1CCCCC1 [cyclohexanone] + CN1CCCC1=O
[2]
Settings	excess molar enthalpy [kcal/mol]
x1 = 0.0609	0.0043
x1 = 0.1242	0.013
x1 = 0.1855	0.0201
x1 = 0.2495	0.0261
x1 = 0.3151	0.0331
x1 = 0.3761	0.0391
x1 = 0.4301	0.0425
x1 = 0.4527	0.0461
x1 = 0.5028	0.0484
x1 = 0.5608	0.0481
x1 = 0.6249	0.0477
x1 = 0.6866	0.04
x1 = 0.7491	0.0317
x1 = 0.8134	0.0237
x1 = 0.8794	0.0158
x1 = 0.9445	0.00798

O=C1CCCCC1 [cyclohexanone]
Settings	vapor or sublimation pressure [kPa]
[1], 426.25 K	95.3

CC(=O)CC(C)C [4-methylpentan-2-one] + CN1CCCC1=O
[2]
Settings	excess molar enthalpy [kcal/mol]
x1 = 0.0508	0.00545
x1 = 0.1052	0.0119
x1 = 0.1632	0.0183
x1 = 0.2234	0.0242
x1 = 0.2858	0.0304
x1 = 0.3815	0.04
x1 = 0.4258	0.0429
x1 = 0.4787	0.0432
x1 = 0.5346	0.0415
x1 = 0.599	0.0401
x1 = 0.6712	0.0362
x1 = 0.7536	0.0253
x1 = 0.8369	0.0156
x1 = 0.9192	0.00581

CCC(C)=O [butanone]
Settings	mass density [kg/m3]
[1]	799.71

Settings	vapor or sublimation pressure [kPa]
[1], 350.85 K	95.3

CCC(C)=O [butanone] + CN1CCCC1=O
[2]
Settings	excess molar enthalpy [kcal/mol]
x1 = 0.0565	-0.00626
x1 = 0.1162	-0.0109
x1 = 0.1812	-0.0161
x1 = 0.2461	-0.0239
x1 = 0.3104	-0.0306
x1 = 0.369	-0.0355
x1 = 0.4334	-0.0382
x1 = 0.4841	-0.04
x1 = 0.5458	-0.0377
x1 = 0.6781	-0.0277
x1 = 0.7324	-0.0206
x1 = 0.7935	-0.0148
x1 = 0.8525	-0.0117
x1 = 0.9112	-0.00593
x1 = 0.9609	-0.0048
